Structures are written as SMILES.

The EC50 is the concentration needed to bring the measured effect to its halfway point.

The nature of data set [1]: Inhibition of human GFP-fused ABCG2 expressed in MDCK2 cells assessed as potentiation of SN-38 induced cytotoxicity by measuring cell viability after 72 hrs by MTT assay. A general note: Tetrazolium assays rely on reduction of a dye to a coloured formazan, in cell work by metabolically active cells.
The nature of data set [2]: Inhibition of human GFP-fused ABCG2 expressed in MDCK2 cells assessed as potentiation of mitoxantrone induced cytotoxicity by measuring cell viability after 72 hrs by MTT assay.

As for `Cc1cc(Nc2ccc(O)c([N+](=O)[O-])c2)nc(-c2ccccc2)n1`, the EC50 in data set [1] turned out to be 62 nM; in data set [2], 22 nM.

For `N#Cc1cccc(Nc2nc(-c3cccnc3)nc3ccccc23)c1`, in data set [1], the EC50 is 85 nM.

For `O=[N+]([O-])c1ccc(Nc2nc(-c3cccnc3)nc3ccccc23)cc1`, the EC50 in data set [1] is 21 nM; in data set [2] it was 13 nM.

These data come from BindingDB's records for doi:10.1021/acs.jmedchem.7b00441 (University of Bonn, 2017).
